Data from patent publication US12629341B2 (priority 2019, dated 2026).

How the values were obtained:
[1] = molecular target: PrP^Sc (Mesocricetus auratus, UniProt P04273); design: species or system Syrian hamster; details: Hyper-hamster PrPSc pellet
[2] = molecular target: PrP^Sc (Mus musculus, UniProt P04925); details: FVB-RML mouse PrPSc pellet
Sequence of PrP^Sc (Mus musculus, UniProt P04925) (P04925 23-230 limits assumed): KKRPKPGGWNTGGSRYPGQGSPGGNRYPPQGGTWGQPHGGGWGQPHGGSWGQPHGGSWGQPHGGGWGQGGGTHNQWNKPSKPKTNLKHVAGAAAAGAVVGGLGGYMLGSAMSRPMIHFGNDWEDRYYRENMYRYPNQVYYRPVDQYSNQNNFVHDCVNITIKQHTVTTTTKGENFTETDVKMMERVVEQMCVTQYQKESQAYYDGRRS

Sequence of PrP^Sc (Mesocricetus auratus, UniProt P04273) (P04273 23-231 limits assumed): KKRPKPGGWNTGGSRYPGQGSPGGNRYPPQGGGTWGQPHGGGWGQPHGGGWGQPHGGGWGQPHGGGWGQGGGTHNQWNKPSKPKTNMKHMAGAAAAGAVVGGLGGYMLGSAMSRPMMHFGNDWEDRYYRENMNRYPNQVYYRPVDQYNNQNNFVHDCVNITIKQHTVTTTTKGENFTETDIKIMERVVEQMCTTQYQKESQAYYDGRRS

## CCCCCCCCCCCC(=O)N(C)CC(=O)[O-].[Na+] [Sarkosyl]
[1]
  calculated amount of lipid: DG: 0
  calculated amount of lipid: FA (free fatty acid): 0
  calculated amount of lipid: FC (free cholesterol): 24.35
  calculated amount of lipid: PC (phosphatidylcholine): 21.46
  calculated amount of lipid: PE (phosphatidylethanolamine): 8.57
  calculated amount of lipid: PI (phosphatidylinositol): 0
  calculated amount of lipid: PS (phosphatidylserine): 2.23
  calculated amount of lipid: SM (sphingomyelin): 3.12
[2]
  calculated amount of lipid: CE (cholesterol esters): 3.54
  calculated amount of lipid: DG: 0
  calculated amount of lipid: FA (free fatty acid): 0
  calculated amount of lipid: FC (free cholesterol): 31.17
  calculated amount of lipid: PC (phosphatidylcholine): 16.80
  calculated amount of lipid: PE (phosphatidylethanolamine): 21.83
  calculated amount of lipid: PI (phosphatidylinositol): 1.92
  calculated amount of lipid: PS (phosphatidylserine): 8.05
  calculated amount of lipid: SM (sphingomyelin): 1.58
  calculated amount of lipid: TG (triglycerides): 4.29
